The values below come from article PMC3510438, “The transmembrane tyrosines Y56, Y91 and Y167 play important roles in determining the affinity and transport rate of the rabbit proton-coupled peptide transporter PepT1” (The International Journal of Biochemistry & Cell Biology, 2009).

Each structure is given as a SMILES string. Where a chain is given by its changes, count along the chain named. Where a SMILES comes first, the peptide text is derived from it. [ ]: non-standard residue; d: D form. Sar = CNCC(=O)O

Assay [1] concerns hPepT1 with mutations of Y167. Details: method as in Yeung et al., 1998. To be noted: transfected HEK293 cells; ref Yeung et al., 1998; cited from earlier work.
Assay [2] has as its target T1, wild-type rPepT1 (Oryctolagus cuniculus, UniProt P36836).
T1 construct: expressed in transfected cells; host or cells: Xenopus laevis oocytes injected with cRNA
T1 sequence (P36836 1-707): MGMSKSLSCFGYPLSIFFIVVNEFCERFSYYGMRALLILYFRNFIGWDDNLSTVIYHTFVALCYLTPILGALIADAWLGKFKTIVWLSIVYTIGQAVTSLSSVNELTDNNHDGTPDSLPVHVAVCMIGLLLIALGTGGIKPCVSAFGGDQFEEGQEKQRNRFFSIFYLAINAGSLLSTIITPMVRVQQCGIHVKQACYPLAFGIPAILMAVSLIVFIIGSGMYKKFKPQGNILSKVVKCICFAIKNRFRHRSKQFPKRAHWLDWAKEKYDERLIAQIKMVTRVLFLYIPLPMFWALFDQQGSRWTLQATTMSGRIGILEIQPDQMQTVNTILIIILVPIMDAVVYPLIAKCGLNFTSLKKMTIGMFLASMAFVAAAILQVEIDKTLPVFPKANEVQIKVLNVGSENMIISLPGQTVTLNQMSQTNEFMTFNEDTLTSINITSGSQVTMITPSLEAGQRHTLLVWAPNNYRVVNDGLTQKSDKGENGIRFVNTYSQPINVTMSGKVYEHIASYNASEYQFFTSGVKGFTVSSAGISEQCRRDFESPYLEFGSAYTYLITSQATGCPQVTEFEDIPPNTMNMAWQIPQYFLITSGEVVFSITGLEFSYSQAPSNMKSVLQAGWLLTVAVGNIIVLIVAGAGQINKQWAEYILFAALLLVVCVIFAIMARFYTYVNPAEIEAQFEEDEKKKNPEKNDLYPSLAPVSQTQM
Put plainly: Competition of [3H]-D-Phe-L-Gln uptake into Xenopus oocytes, Ki by method of Deves and Boyd. Format: cell-based, rabbit. To be noted: pHout 5.5; inhibition of 0.4 μM [3H]-D-Phe-L-Gln uptake; n = 4. As to the method: rPepT1 constructs were linearised with XbaI (New England Biolabs, UK) and cRNA generated by in vitro transcription (T7 mMessage mMachine, Ambion, Cambridgeshire, UK). Xenopus laevis oocytes were obtained under MS222 anaesthesia (0.2%, w/v) in accordance with the UK Animals (Scientific Procedures) Act, 1986, and maintained at 18 °C in modified Barth's medium (88 mM NaCl, 1 mM KCl, 0.82 mM MgSO4, 2.4 mM NaHCO3, 0.42 mM CaCl2, 10 mM Hepes, 5 mM sodium pyruvate, 50 μg ml^−1 gentamicin (Fluka, Poole, UK), adjusted to pH 7.6 with 1 M NaOH). Transport measurements were performed at least 72 h after micro-injection of oocytes with 27nl cRNA (1 μg/μl), with medium changed daily.
Uptake of [^3H]-D-Phe-L-Gln (17.4 Ci/mmole, custom synthesised, Cambridge Research Biochemicals, Stockton-on-Tees, UK) was performed as previously described ([Meredith, 2004]). Briefly, 5 oocytes were incubated in 100 μl of uptake medium (95 mM NaCl, 2 mM KCl, 1 mM CaCl2, 0.42 mM MgCl2, 10 mM Tris/Hepes pH 7.4 or Tris/Mes pH 5.5) with tracer (0.4 μM) [^3H]-D-Phe-L-Gln. After incubation, the oocytes were washed sequentially five times in 1 ml of ice-cold 120 mM NaCl solution, lysed individually with 100 μl 2% (w/v) SDS and liquid scintillation counted. As a control non-injected oocytes were also incubated in uptake medium with D-Phe-L-Gln as above.
The affinity of wild-type and mutant rPepT1 transporters were assessed by competition studies with 0.4 μM [^3H]-D-Phe-L-Gln and Gly-L-Gln present in the uptake medium in concentrations from 0 to 2 mM using the protocol above, and the Ki calculated using the method of [Deves and Boyd (1989)].

Assay [3] concerns the target T2, Y56F-rPepT1 (Oryctolagus cuniculus, UniProt P36836, Y56F).
T2 construct: expressed in transfected cells; host or cells: Xenopus laevis oocytes injected with cRNA
T2 sequence (P36836 1-707 Y56F): T1 sequence (P36836 1-707) with Y56F
Put plainly: Competition of [3H]-D-Phe-L-Gln uptake into Xenopus oocytes, Ki. In kind it is cell-based, rabbit. To be noted: pHout 5.5, n = 4; for Ki: inhibition of 0.4 μM [3H]-D-Phe-L-Gln uptake. The method, then: rPepT1 constructs were linearised with XbaI (New England Biolabs, UK) and cRNA generated by in vitro transcription (T7 mMessage mMachine, Ambion, Cambridgeshire, UK).
As a control non-injected oocytes were also incubated in uptake medium with D-Phe-L-Gln as above.

Assay [4] deals with Y56A mutation of PepT1. Details: method as in Chen et al. (2000). The settings on record: ref Chen et al. (2000); cited from earlier work.
Assay [5] addresses T2, Y56F-rPepT1. Details: method as in Chen et al. (2000). To be noted: Y56F mutant versus wild-type; ref Chen et al. (2000); cited from earlier work.

Take `CN(CC(=O)O)C(=O)CN` [Gly-Sar] (H-Gly-[Sar]-OH): the uptake result in assay [1] is reported as “no measurable uptake”.

On to `NC(Cc1ccccc1)C(=O)NC(Cc1ccc(O)cc1)C(=O)O` (stereo not drawn) [Phe-Tyr] (H-Phe-Tyr-OH; configuration not given here), for which, in assay [2], the Ki came out at 200 ± 30 µM. Besides, in assay [3], the affinity corresponds to a Ki of 0.86 ± 0.26 µM and the “fold change in affinity (Ki), wild-type rPepT1 versus Y56F-rPepT1” value worked out at 336.4 ± 100.6 fold.

As to `CC(C)C[C@H](NC(=O)CN)C(=O)O` [Gly-L-Leu], the transport entry in assay [4] is reported as “lost completely”. Also, the reduction of transport result in assay [5] was “approximately 85%”.

For `NC(=O)[C@H](Cc1ccc(O)cc1)NC(=O)[C@@H](N)Cc1ccccc1` [Phe-Tyr-NH2] (H-Phe-Tyr-NH2), the Ki in assay [2] amounted to 6600 ± 1620 µM; in assay [3], 72.9 ± 20.5 µM. Further, in assay [3], the “fold change in affinity (Ki), wild-type rPepT1 versus Y56F-rPepT1” value is given as 64.4 ± 26.0 fold.

By Ki is commonly meant a dissociation constant, usually derived from enzyme kinetics or from competition with a known ligand. Read a low Ki as a stronger hold on the target.
